Reference: ChEMBL document CHEMBL3124830, “Hepatitis C virus translation inhibitors targeting the internal ribosomal entry site” (J Med Chem, 2014)

Experiments:
[1] = tested on: Internal ribosome entry site (IRES); test: Binding affinity to Hepatitis C virus IRES RNA subdomain 2a by mass spectrometry assay; design: species or system Hepacivirus hominis
[2] = Binding affinity to Hepatitis C virus genotype 1b IRES RNA subdomain 2a assessed as conformational change by cyanine dye-based FRET assay; design: species or system Hepatitis C virus subtype 1b
Hepatitis C virus [3] = test: Antiviral activity against Hepatitis C virus infected in Huh-7 cells assessed as inhibition of HCV replicon by replicon assay; type: functional, organism-based, Hepacivirus hominis
[4] = tested on: Internal ribosome entry site (IRES); test: Inhibition of Hepatitis C virus IRES RNA-driven translation; conditions: Hepacivirus hominis
Hepatitis C virus [5] = test: Antiviral activity against Hepatitis C virus infected in Huh-7 cells assessed as inhibition of HCV replicon at 10 uM by replicon assay; type: functional, Hepacivirus hominis

SMILES	EC50 [2] [µM]	EC50 (Hepatitis C virus [3]) [µM]	IC50 [4] [µM]	Kd [1] [µM]	inhibition at 10 µM (Hepatitis C virus [5]) [%]
CN(C)CCCn1c(N)nc2ccc3c(c21)CC(CN(C)C)CO3 (stereo unspecified)	3.4	2.8	–	0.86	–
CN(C)CC1COc2ccc3nc4n(c3c2C1)CC(CN(C)C)CN4 (stereo unspecified)	0.6	4	–	–	–
Cc1cc2nc3ccc(N(C)C)cc3nc2cc1N	–	–	0.08	–	–
CC(=O)c1ccc(C(=O)N[C@@H](CCCCN)C(=O)N2C[C@H](N)C[C@H](N)C2)cc1	6.3	–	–	–	75

Second part, led by results:

EC50 [2] [µM]	EC50 (Hepatitis C virus [3]) [µM]	IC50 [4] [µM]	SMILES	Kd [1] [µM]	inhibition at 10 µM (Hepatitis C virus [5]) [%]
–	–	9.6	Cc1cc(C)nc(/N=C(\N)NCCc2ccccc2)n1	–	–
50	–	–	CN(C)CCCn1c(N)nc2ccccc21	100	–
